Measurements reported in ChEMBL document CHEMBL4190400, “Identification of Potent Ebola Virus Entry Inhibitors with Suitable Properties for in Vivo Studies” (J Med Chem, 2018).
pEC50, pIC50: −log10 of the molar value. ≈ marks a conversion by molar mass, not a printed value.

How the values were obtained:
[1] = Stability of the compound in mouse plasma at 10 uM assessed as compound remaining after 4 hrs by LC-MS/MS analysis; format: ADME, cell-free; details: read-out: Stability
[2] = Half life in mouse liver microsomes at 1 uM after 60 mins in presence of NADPH by LC-MS/MS analysis; format: ADME, microsome
Ebolavirus [3] = experiment: Antiviral activity against VSV pseudotyped Ebolavirus expressing M-GFP infected in African green monkey Vero E6 cells assessed as inhibition of viral infection pre-incubated for 2 hrs before infection and measured after 8 to 12 hrs by fluorescence microscopic method; format: functional, Vero C1008
physchem = details: phosphate buffered saline, pH 7.4
in vitro = details: mouse, plasma
[4] = Half life in mouse liver microsomes at 1 uM after 60 mins in presence of NADPH and ritonavir by LC-MS/MS analysis; format: ADME, microsome; details: with ritonavir (concentration not stated)
[5] = Concentration in mouse plasma at 25 mg/kg, po administered via gavage after 12 hrs; format: ADME, organism-based
[6] = Clearance in mouse at 25 mg/kg, po administered via gavage; format: ADME, organism-based; details: in vivo
[7] = Cmax in mouse at 25 mg/kg, po administered via gavage cotreated with 20 mg/kg ritonavir; format: ADME, organism-based; design: dose 25 mg/kg, route oral; details: in vivo
[8] = Concentration in mouse plasma at 25 mg/kg, po administered via gavage cotreated with 20 mg/kg ritonavir; format: ADME, organism-based; details: in vivo
[9] = AUClast in mouse at 25 mg/kg, po administered via gavage cotreated with 20 mg/kg ritonavir; format: ADME, organism-based; design: dose 25 mg/kg, route oral, time 0 - last; details: in vivo
[10] = Clearance in mouse at 25 mg/kg, po administered via gavage cotreated with 20 mg/kg ritonavir; format: ADME, organism-based; details: in vivo
Ebolavirus [11] = experiment: Antiviral activity against recombinant VSV pseudotyped Ebolavirus expressing M-GFP infected in African green monkey Vero E6 cells assessed as inhibition of viral infection pre-incubated for 2 hrs before infection and measured after 8 to 12 hrs in presence of 50% NHS by fluorescence microscopic method; format: functional, Vero C1008; details: Orthoebolavirus, Vero C1008
in vivo = details: mouse, po, 25 mg/kg
[12] = Half life in human liver microsomes at 1 uM after 60 mins in presence of NADPH by LC-MS/MS analysis; format: ADME, microsome
[13] = Tmax in mouse at 50 mg/kg, po administered via gavage cotreated with 50 mg/kg ritonavir; format: ADME, organism-based; details: in vivo
[14] = Cmax in mouse at 50 mg/kg, po administered via gavage cotreated with 50 mg/kg ritonavir; format: ADME, organism-based; design: dose 50 mg/kg, route oral; details: in vivo
[15] = Concentration in mouse plasma at 50 mg/kg, po administered via gavage cotreated with 50 mg/kg ritonavir; format: ADME, organism-based; details: in vivo
[16] = AUClast in mouse at 50 mg/kg, po administered via gavage cotreated with 50 mg/kg ritonavir; format: ADME, organism-based; design: dose 50 mg/kg, route oral, time 0 - last; details: in vivo
[17] = Half life in mouse at 50 mg/kg, po administered via gavage cotreated with 50 mg/kg ritonavir; format: ADME, organism-based; details: in vivo
[18] = Clearance in mouse at 50 mg/kg, po administered via gavage cotreated with 50 mg/kg ritonavir; format: ADME, organism-based; details: in vivo
Ebolavirus [19] = experiment: Antiviral activity against Ebolavirus isolate Makona infected in human HeLa cells assessed as inhibition of viral infection pretreated for 2 hrs before viral infection and measured after 48 hrs by EboV GP immunostaining based method; format: functional, cell-based; details: Orthoebolavirus

For `O=C(CC12CC3CC(CC(C3)C1)C2)NCC(=O)N1CCN(Cc2ccccc2OCc2ccc(-c3ncco3)cc2)CC1`, the remaining at 4 h, 10 µM [1] was 37%, the half-life at 1 µM [2] was 1 min and the pIC50 (Ebolavirus [3]; Orthoebolavirus, Vero C1008) was 6.57. It also gave a solubility kinetic (physchem) of 5 µM (≈ 2.91 µg/mL) and a fraction unbound at 6 h (in vitro) of 0.003.

Work on `O=C(CC1CCC(F)(F)CC1)NCC(=O)N1CCN(Cc2cc(Cl)cc(Cl)c2O)CC1` yielded a pIC50 (Ebolavirus [3]; Orthoebolavirus, Vero C1008) of 5.44.

`COC(=O)c1ccc(/C=C/c2ccccc2CN2CCN(C(=O)CNC(=O)CC34CC5CC(CC(C5)C3)C4)CC2)cc1` showed a pIC50 (Ebolavirus [3]; Orthoebolavirus, Vero C1008) of 5.82.

For `O=C(CC12CC3CC(CC(Br)(C3)C1)C2)NCC(=O)N1CCN(Cc2ccccc2OCc2ccc(Br)cc2)CC1`, the pIC50 (Ebolavirus [3]; Orthoebolavirus, Vero C1008) was 6.22.

Work on `COC(=O)c1ccc(COc2ccc(Br)cc2CN2CCN(C(=O)CNC(=O)CC34CC5CC(CC(C5)C3)C4)CC2)cc1` yielded a pIC50 (Ebolavirus [3]; Orthoebolavirus, Vero C1008) of 8.05.

For `[2H]C([2H])(c1cc(Cl)ccc1N)N1CCN(C(=O)CNC(=O)CC2CCC(F)(F)CC2)CC1`, the remaining at 4 h, 10 µM [1] was 86%, the half-life at 1 µM [4] was > 120 min and the concentration at 12 h [5] was 200 nM. It also gave a CL/F [6] of 49 mL/min/kg, a Cmax [7] of 12000 nM and a concentration [8] of 1700 nM. For the same molecule, the AUC(0-t) [9] was 76.8 µM·h, the CL/F [10] was 12.3 mL/min/kg and the pIC50 (Ebolavirus [3]; Orthoebolavirus, Vero C1008) was 6.46. For the same molecule, the pIC50 (Ebolavirus [11]) was 5.92 and the half-life (in vivo) was 138 min.

Molecule `[2H]C([2H])(c1cc(Cl)ccc1N)N1CCN(C(=O)CNC(=O)C2CC23CCC(F)(F)CC3)CC1` (single isomer, unassigned; (-)) has a remaining at 4 h, 10 µM [1] of 88%, a half-life at 1 µM [2] of 3 min and a half-life at 1 µM [4] of 91 min. It also gave a half-life at 1 µM [12] of 16 min, a Tmax [13] of 102 min and a Cmax [14] of 19500 nM. It also gave a concentration [15] of 2000 nM, an AUC(0-t) [16] of 121 µM·h and a half-life [17] of 192 min. The CL/F [18] was 15.5 mL/min/kg, the pIC50 (Ebolavirus [3]; vero c1008) was 7.29 and the pIC50 (Ebolavirus [11]) was 6.79. The solubility kinetic (physchem) was 78 µM (≈ 35.6 µg/mL) and the fraction unbound at 6 h (in vitro) was 0.121.

With `O=C(CC12CC3CC(CC(C3)C1)C2)NCC(=O)N1CCN(Cc2cc(F)c(F)cc2Cl)CC1` the pIC50 (Ebolavirus [3]; Orthoebolavirus, Vero C1008) was 5.84.

Work on `Nc1ccc(Cl)cc1CN1CCN(C(=O)CNC(=O)C2CC23CCCC3)CC1` (racemic) yielded a pIC50 (Ebolavirus [3]; Orthoebolavirus, Vero C1008) of 6.62.

For `O=C(CC1CCC(F)(F)CC1)NCC(=O)N1CCN(Cc2cc(Cl)ccc2NS(=O)(=O)C2CC2)CC1`, the pIC50 (Ebolavirus [3]; Orthoebolavirus, Vero C1008) was 5.66.

With `COC(=O)c1ccc(COc2ccc(F)cc2CN2CCN(C(=O)CNC(=O)CC34CC5CC(CC(C5)C3)C4)CC2)cc1` the pIC50 (Ebolavirus [3]; Orthoebolavirus, Vero C1008) was 8.85.

`O=C(CC12CC3CC(C1)CC(c1ccccc1)(C3)C2)NCC(=O)N1CCN(Cc2ccccc2OCc2ccc(Br)cc2)CC1` gave a pIC50 (Ebolavirus [3]; Orthoebolavirus, Vero C1008) of 6.15.

In the case of `COC(=O)c1ccc(COc2ccc(Cl)cc2CN2CCN(C(=O)CNC(=O)CC3CCC(F)(F)CC3)CC2)cc1`, the pIC50 (Ebolavirus [3]; Orthoebolavirus, Vero C1008) was 7.82.

For `Nc1ccc(Cl)cc1CN1CCN(C(=O)CNC(=O)CC2CCC(F)(F)CC2)CC1`, the remaining at 4 h, 10 µM [1] was 94%, the pIC50 (Ebolavirus [3]; Orthoebolavirus, Vero C1008) was 6.47 and the solubility kinetic (physchem) was > 100 µM. The fraction unbound at 6 h (in vitro) was 0.131.

For `CS(=O)(=O)c1ccc(COc2ccc(Cl)cc2CN2CCN(C(=O)CNC(=O)CC3CCC(F)(F)CC3)CC2)cc1`, the remaining at 4 h, 10 µM [1] was 30%, the half-life at 1 µM [4] was > 120 min and the pIC50 (Ebolavirus [11]) was 7.42.

In the case of `[2H]C([2H])(c1cc(Cl)ccc1N)N1CCN(C(=O)CNC(=O)C2CC23CCC(F)(F)CC3)CC1` (racemic), the pIC50 (Ebolavirus [3]; vero c1008) was 7.03.

`COC(=O)c1ccc(COc2ccccc2CN2CCN(C(=O)CNC(=O)CC34CC5CC(CC(C5)C3)C4)CC2)cc1` showed a half-life at 1 µM [2] of 1 min, a half-life at 1 µM [12] of 1.2 min and a pIC50 (Ebolavirus [3]; Orthoebolavirus, Vero C1008) of 7.89. The pIC50 (Ebolavirus [11]) was 7.19, the pEC50 (Ebolavirus [19]) was 6.80 and the solubility kinetic (physchem) was 5.3 µM (≈ 3.04 µg/mL).

For `COC(=O)c1ccc(CCc2ccccc2CN2CCN(C(=O)CNC(=O)CC34CC5CC(CC(C5)C3)C4)CC2)cc1`, the pIC50 (Ebolavirus [3]; Orthoebolavirus, Vero C1008) was 7.70.

Molecule `COC(=O)c1ccc(COc2ccccc2CN2CCN(C(=O)CNC(=O)CC3CCC(F)(F)CC3)CC2)cc1` has a pIC50 (Ebolavirus [3]; Orthoebolavirus, Vero C1008) of 7.30.
